Patent publication US10959968B2, “Methods for treating c-Met-dependent cancers” (Board of Supervisors of Louisiana State University and …, priority 2016, dated 2021)

Assays:
[1] = tested on: DU145 human prostate cancer cells (pMet, pAkt, pErk); assay: Western blot of HGF-induced signaling in prostate cancer cells; type: cell-based; details: 30 min pretreatment, 30 min HGF
Description: FIG. 4. A) Effect of HVS treatment on HGF-induced c-Met activation in human breast cancer cells using Western Blot analysis. Treatment with HVS caused a significant, dose-responsive inhibition of HGF-induced c-Met phosphorylation in MDA-MB-231, MCF-7, and BT-474 mammary tumor cells with no effect on total c-Met levels after treatment for 72 h, as compared to their respective vehicle-treated control groups. The visualization of β-tubulin was used as a loading control. (B) Effect of HVS on HGF-induced c-Met activation and its downstream mitogenic signaling in DU145 human prostate cancer cells, as compared to vehicle-treated control group, using Western Blot analysis. Cells were pre-treated for 30 minutes with either HVS at 0.1, 0.3, 1, and 5 μM or (−)-oleocanthal at 5, 10, and 20 μM doses in serum-free 0.4-media. 33 ng/mL HGF was then added for 30 minutes. Whole cell lysates were collected and assayed by Western Blot. The visualization of α-tubulin was used as a loading control. Representative Western Blots from each experiment are shown, N=3.
DU145 prostate tumor cells were pretreated for 30 minutes with the indicated compounds. Following pretreatment, cells were pulsed for thirty minutes with HGF, cell lysates were prepared and western blot analysis was performed to identify pMet, pAkt, pErk and tubulin.

DU145 spheroids = assay: 3D spheroid growth, IncuCyte; type: cell-based, human; details: 10 micromolar, 72 hours
Description: FIG. 9B: DU145 cells were grown in 10% FBS DMEM. Cells were collected after trypsinization and resuspended in phenol-red free DMEM with 10% FBS. Cells were labeled with Cell-Tracker Red (Life Technologies) for 5 minutes. After labeling cells were washed with PBS and transfer into 96-well Corning 7007 ULA round bottom plates at 1,000 cells/well in 100 μl phenol-red free media with 10% FBS and 5% Matrigel. […] Spheroids were grown at 37° C. and 5% CO2 in IncuCyte ZOOM (Essen Bioscience). Images were acquired every 4 h for a period of 72 h post-treatment and software analysis was design to identify the red object in the well. The data were expressed as fold increase in spheroids size at the end of the treatment using the “average red object area in the well” as determined by the IncuCyte software analysis. FIG. 9C: Visually representative spheroids that are quantitated in FIG. 9B.
To determine the effectiveness of these compounds under 3D growth conditions which more accurately predict effectiveness of new drugs in humans, DU145 spheroids were formed and allowed to grow for 72 hours. Images were recorded every 4 hours using the Incucyte platform. […] Compounds 9 and 10, at 10 micromolar reduced spheroid growth by about 50 percent (not shown).

MDA-MB231 spheroids = assay: 3D spheroid growth, IncuCyte; type: cell-based, human; details: 10 micromolar, results not shown
Description: FIG. 9. (A). MDA-MB231 cells were grown in 10% FBS DMEM. Cells were collected after trypsinization and resuspended in phenol-red free DMEM with 10% FBS. Cells were labeled with CellTracker Red (Life Technologies) for 5 minutes. After labeling cells were washed with PBS and transfer into 96-well Corning 7007 ULA round bottom plates at 1,000 cells/well in 100 μl phenol-red free media with 10% FBS and 5% Matrigel. […] Spheroids were grown at 37° C. and 5% CO2 in IncuCyte ZOOM (Essen Bioscience). Images were acquired every 4 h for a period of 72 h post-treatment. The data were expressed as fold increase in spheroids size at the end of the treatment using the “average red object area in the well” as determined by the IncuCyte software analysis.
MDA-MB231 spheroids were all allowed to form and treated with compounds for up to 72 hours. Images were captured using the Incucyte platform.

Row | SMILES | pAkt signaling [1] | pMet induction [1] | reduction of spheroid growth (DU145 spheroids) | effect on spheroid growth (MDA-MB231 spheroids) | HGF-induced (Met dependent) signaling [1]
1 | COc1cc(CCOC(=O)/C=C/c2cc(OC)c(O)c(OC)c2)ccc1N [Compound 9, (E)-4-amino-3-methoxyphenethyl 3-(4-hydroxy-3,5-dimethoxyphenyl)-acrylate] | did attenuate | did not lower | about 50% | effective | 
2 | COc1cc(/C=C/C(=O)OCCc2ccc(N)nc2)cc(OC)c1O [Compound 10, (E)-2-(6-aminopyridin-3-yl)ethyl 3-(4-hydroxy-3,5-dimethoxyphenyl)acrylate] |  |  | about 50% | effective | appeared to increase
